US6783539B1, “Phototriggerable, collagen-crosslinking compounds for wound closure” (University of Kansas Medical Center, priority 2001, dated 2004)

Assay: Photoactivated welding of rabbit Achilles tendon pieces, tensile strength by tensiometer
Conditions: mixture of 1.2 M DPD and 1.2 M DEDA in DMSO between two tendon pieces, 2 W, 500 sec (1,000 J)
Protocol: A rabbit Achilles tendon, previously stored at −70° C., was dissected from the remaining muscle, cleaned of fascia and muscle, and divided in half along its length.
One tendon piece was placed diagonally on a fused silica (UV transparent) glass slide and several drops of the mixture was placed in the center of the tendon piece. The other tendon piece was placed on top, forming an “X” shape with the mixture in between the two pieces at their intersection. Another identical slide was placed on top and light pressure was applied to the two slides.
The tendons and slides were then placed beneath a liquid light guide that delivered light from a filtered mercury-arc light source (320-500 nm, 2 W) and exposed for 500 sec (1,000 J).
After light exposure, the tendons were removed from the slide and placed on an illuminated grid beneath a CCD camera with a macro lens. An image of the overlapped (i.e. “welded”) area was digitized and stored. Measurement of the overlapped area was made using standard computer software.
The welded tendon was then placed in a tensiometer to measure tensile strength. One tendon end was clamped and attached to a strain gauge, while the opposite end of the other tendon clamped to a block moved by a lead screw.
The maximum force tolerated by the bonded tendon before breaking was divided by the bonded area to calculate the Maximum Stress in Newtons/cm^2.

SMILES: [N-]=[N+]=CC(=O)C(=O)NCCOCCOCCNC(=O)C(=O)C=[N+]=[N-] [DPD, N,N′-bis(3-diazapynivoyl)-2,2′-(ethylenedioxy)bis(ethylamine)]
- Observation of tendon welding after light exposure (320-500 nm): welded together
- Maximum Stress (maximum force tolerated by the bonded tendon before breaking divided by the bonded area) (filtered mercury-arc light 320-500 nm): 31.7 N/cm^2
